Assay type in all cases: functional
In assay [1] the test system is Fusarium verticillioides. In words: Fungicidal activity against Fusarium verticilliodes isolate YZ01 in rice seeds harvested from bakane diseased plants assessed as number of seedlings abnormally elongated or exhibiting symptoms of damping-off at 6.25 ug/ml at 30 degC incubated for 72 hr measured after 3 days under greenhouse trials (reference value: 33.6%).
The test system of assay [2] is Fusarium verticillioides. In words: Fungicidal activity against Fusarium verticilliodes isolate JS02 in rice seeds harvested from bakane diseased plants assessed as number of seedlings abnormally elongated or exhibiting symptoms of damping-off at 25 ug/ml at 30 degC incubated for 72 hr measured after 3 days under greenhouse trials (reference value: 24.9%).
Assay [3] concerns Fusarium verticillioides. In words: Fungicidal activity against Fusarium verticilliodes isolate N01 in rice seeds harvested from bakane diseased plants assessed as number of seedlings abnormally elongated or exhibiting symptoms of damping-off at 25 ug/ml at 30 degC incubated for 72 hr measured after 3 days under greenhouse trials (reference value: 27.4%).
Assay [4] has as its system Fusarium verticillioides. Kind of assay: Fungicidal activity against Fusarium verticilliodes isolate JS05 in rice seeds harvested from bakane diseased plants assessed as number of seedlings abnormally elongated or exhibiting symptoms of damping-off at 25 ug/ml at 30 degC incubated for 72 hr measured after 3 days under greenhouse trials (reference value: 36.4%).
Assay [5] deals with Fusarium verticillioides. Kind of assay: Fungicidal activity against Fusarium verticilliodes isolate YZ06 in rice seeds harvested from bakane diseased plants assessed as number of seedlings abnormally elongated or exhibiting symptoms of damping-off at 25 ug/ml at 30 degC incubated for 72 hr measured after 3 days under greenhouse trials (reference value: 45.3%).
The test system of assay [6] is Fusarium verticillioides. In words: Fungicidal activity against Fusarium verticilliodes isolate N03 in rice seeds harvested from bakane diseased plants assessed as number of seedlings abnormally elongated or exhibiting symptoms of damping-off at 6.25 ug/ml at 30 degC incubated for 72 hr measured after 3 days under greenhouse trials (reference value: 36.1%).
In assay [7] the test system is Fusarium verticillioides. In words: Fungicidal activity against Fusarium verticilliodes isolate YZ22 in rice seeds harvested from bakane diseased plants assessed as number of seedlings abnormally elongated or exhibiting symptoms of damping-off at 6.25 ug/ml at 30 degC incubated for 72 hr measured after 3 days under greenhouse trials (reference value: 22.5%).
Assay [8] concerns Fusarium verticillioides. Kind of assay: Fungicidal activity against Fusarium verticilliodes isolate YZ05 in rice seeds harvested from bakane diseased plants assessed as number of seedlings abnormally elongated or exhibiting symptoms of damping-off at 6.25 ug/ml at 30 degC incubated for 72 hr measured after 3 days under greenhouse trials (reference value: 33.3%).
Assay [9] concerns Fusarium verticillioides. In words: Fungicidal activity against Fusarium verticilliodes isolate YZ08 in rice seeds harvested from bakane diseased plants assessed as number of seedlings abnormally elongated or exhibiting symptoms of damping-off at 25 ug/ml at 30 degC incubated for 72 hr measured after 3 days under greenhouse trials (reference value: 19.8%).
The test system of assay [10] is Fusarium verticillioides. In words: Fungicidal activity against Fusarium verticilliodes isolate JS05 in rice seeds harvested from bakane diseased plants assessed as number of seedlings abnormally elongated or exhibiting symptoms of damping-off at 12.5 ug/ml at 30 degC incubated for 72 hr measured after 3 days under greenhouse trials (reference value: 36.4%).
The test system of assay [11] is Fusarium verticillioides. Kind of assay: Fungicidal activity against Fusarium verticilliodes isolate JS04 in rice seeds harvested from bakane diseased plants assessed as number of seedlings abnormally elongated or exhibiting symptoms of damping-off at 12.5 ug/ml at 30 degC incubated for 72 hr measured after 3 days under greenhouse trials (reference value: 16.2%).

Assay [12] concerns Fusarium verticillioides. In words: Fungicidal activity against Fusarium verticilliodes isolate JS01 in rice seeds harvested from bakane diseased plants assessed as number of seedlings abnormally elongated or exhibiting symptoms of damping-off at 12.5 ug/ml at 30 degC incubated for 72 hr measured after 3 days under greenhouse trials (reference value: 32.5%).
Assay [13] relates to Fusarium verticillioides. In words: Fungicidal activity against Fusarium verticilliodes isolate N02 in rice seeds harvested from bakane diseased plants assessed as number of seedlings abnormally elongated or exhibiting symptoms of damping-off at 12.5 ug/ml at 30 degC incubated for 72 hr measured after 3 days under greenhouse trials (reference value: 41.2%).
Assay [14] has as its system Fusarium verticillioides. Kind of assay: Fungicidal activity against Fusarium verticilliodes isolate JS09 in rice seeds harvested from bakane diseased plants assessed as number of seedlings abnormally elongated or exhibiting symptoms of damping-off at 25 ug/ml at 30 degC incubated for 72 hr measured after 3 days under greenhouse trials (reference value: 32.6%).
In assay [15] the test system is Fusarium verticillioides. Kind of assay: Fungicidal activity against Fusarium verticilliodes isolate JS08 in rice seeds harvested from bakane diseased plants assessed as number of seedlings abnormally elongated or exhibiting symptoms of damping-off at 25 ug/ml at 30 degC incubated for 72 hr measured after 3 days under greenhouse trials (reference value: 13.0%).
Assay [16] has as its system Fusarium verticillioides. In words: Fungicidal activity against Fusarium verticilliodes isolate JS07 in rice seeds harvested from bakane diseased plants assessed as number of seedlings abnormally elongated or exhibiting symptoms of damping-off at 8.33 ug/ml at 30 degC incubated for 72 hr measured after 3 days under greenhouse trials (reference value: 33.8%).
Assay [17] relates to Fusarium verticillioides. In words: Fungicidal activity against Fusarium verticilliodes isolate JS06 in rice seeds harvested from bakane diseased plants assessed as number of seedlings abnormally elongated or exhibiting symptoms of damping-off at 8.33 ug/ml at 30 degC incubated for 72 hr measured after 3 days under greenhouse trials (reference value: 25.2%).
In assay [18] the test system is Fusarium verticillioides. In words: Fungicidal activity against Fusarium verticilliodes isolate YZ10 in rice seeds harvested from bakane diseased plants assessed as number of seedlings abnormally elongated or exhibiting symptoms of damping-off at 12.5 ug/ml at 30 degC incubated for 72 hr measured after 3 days under greenhouse trials (reference value: 49.2%).
Assay [19] deals with Fusarium verticillioides. In words: Fungicidal activity against Fusarium verticilliodes isolate YZ07 in rice seeds harvested from bakane diseased plants assessed as number of seedlings abnormally elongated or exhibiting symptoms of damping-off at 8.33 ug/ml at 30 degC incubated for 72 hr measured after 3 days under greenhouse trials (reference value: 43.2%).
Assay [20] relates to Fusarium verticillioides. In words: Fungicidal activity against Fusarium verticilliodes isolate JS05 in rice seeds harvested from bakane diseased plants assessed as number of seedlings abnormally elongated or exhibiting symptoms of damping-off at 6.25 ug/ml at 30 degC incubated for 72 hr measured after 3 days under greenhouse trials (reference value: 36.4%).
For assay [21], the system named is Fusarium verticillioides. Kind of assay: Fungicidal activity against Fusarium verticilliodes isolate JS03 in rice seeds harvested from bakane diseased plants assessed as number of seedlings abnormally elongated or exhibiting symptoms of damping-off at 6.25 ug/ml at 30 degC incubated for 72 hr measured after 3 days under greenhouse trials (reference value: 15.8%).

The subject of assay [22] is Fusarium verticillioides. In words: Fungicidal activity against Fusarium verticilliodes isolate JS02 in rice seeds harvested from bakane diseased plants assessed as number of seedlings abnormally elongated or exhibiting symptoms of damping-off at 6.25 ug/ml at 30 degC incubated for 72 hr measured after 3 days under greenhouse trials (reference value: 24.9%).
Assay [23] deals with Fusarium verticillioides. Kind of assay: Fungicidal activity against Fusarium verticilliodes isolate N06 in rice seeds harvested from bakane diseased plants assessed as number of seedlings abnormally elongated or exhibiting symptoms of damping-off at 6.25 ug/ml at 30 degC incubated for 72 hr measured after 3 days under greenhouse trials (reference value: 9.6%).

For `CCOC(=O)/C(C#N)=C(/N)c1ccccc1`, the Activity was determined as 3.7% in the assay with Fusarium verticillioides [1]; 0% with Fusarium verticillioides [2]; 0% in the assay with Fusarium verticillioides [3]; 0% with Fusarium verticillioides [4]; 0% in the assay with Fusarium verticillioides [5]; 0.5% in the assay on Fusarium verticillioides [6]. For the same compound, the Activity with Fusarium verticillioides [7] is recorded as 2.7%; with Fusarium verticillioides [8], 0.5%; in the assay on Fusarium verticillioides [9], 0%; in the assay on Fusarium verticillioides [10] it was 0%; in the assay on Fusarium verticillioides [11], 0%; with Fusarium verticillioides [12] it was 0%. The Activity in the assay on Fusarium verticillioides [13], in the assay with Fusarium verticillioides [14], in the assay with Fusarium verticillioides [15], in the assay with Fusarium verticillioides [16], in the assay on Fusarium verticillioides [17] and with Fusarium verticillioides [18] was 0% throughout. In addition, the Activity was 0% in the assay with Fusarium verticillioides [19]; 2.8% with Fusarium verticillioides [20]; 1.4% with Fusarium verticillioides [21]; 2% in the assay on Fusarium verticillioides [22]; 0.8% with Fusarium verticillioides [23].
